Each compound was assayed against T1, aryl hydrocarbon receptor (AHR) (Homo sapiens, UniProt P35869) (assay: DRE-Luciferase reporter high-throughput screen (AHR antagonist, VAF347-activated)).
T1 sequence (P35869 11-848): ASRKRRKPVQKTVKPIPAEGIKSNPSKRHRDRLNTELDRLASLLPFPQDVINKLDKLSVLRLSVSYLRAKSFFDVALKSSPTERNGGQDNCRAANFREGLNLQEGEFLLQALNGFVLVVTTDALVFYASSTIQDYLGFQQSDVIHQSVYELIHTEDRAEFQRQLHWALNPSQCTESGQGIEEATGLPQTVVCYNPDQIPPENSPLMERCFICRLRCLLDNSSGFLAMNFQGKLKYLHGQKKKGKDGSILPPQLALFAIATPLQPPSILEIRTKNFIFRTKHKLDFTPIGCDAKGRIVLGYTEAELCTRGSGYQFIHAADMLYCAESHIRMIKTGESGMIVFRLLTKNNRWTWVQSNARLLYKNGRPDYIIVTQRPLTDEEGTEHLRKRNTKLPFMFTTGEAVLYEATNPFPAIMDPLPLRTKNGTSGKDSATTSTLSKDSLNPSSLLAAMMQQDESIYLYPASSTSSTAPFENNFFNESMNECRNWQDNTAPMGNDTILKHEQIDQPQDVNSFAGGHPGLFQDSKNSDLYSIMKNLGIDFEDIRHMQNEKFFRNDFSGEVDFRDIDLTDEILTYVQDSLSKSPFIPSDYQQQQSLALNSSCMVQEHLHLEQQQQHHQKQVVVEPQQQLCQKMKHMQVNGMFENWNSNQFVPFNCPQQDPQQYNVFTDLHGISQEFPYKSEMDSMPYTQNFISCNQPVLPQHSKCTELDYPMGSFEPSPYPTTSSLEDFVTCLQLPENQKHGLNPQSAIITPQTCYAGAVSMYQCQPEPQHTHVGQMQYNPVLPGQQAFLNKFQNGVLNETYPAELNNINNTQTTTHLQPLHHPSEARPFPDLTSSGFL
Cc1ccccc1NC(=O)c1cc(-c2cnc(-c3ccccc3)nc2)cn1C [12B] gave an IC50 of 1 to 2 µM. CC(=O)c1cnc(N2CCN(c3cccc(Cl)c3)CC2)nc1C [69A] showed an IC50 of 1 to 2 µM. In the case of Cc1cc(Cl)ccc1OCc1cn2cccnc2n1 [120A], the IC50 is reported as 1 to 2 µM. Compound CCNC(=O)c1sc2ncc(C(=O)c3ccc(C)cc3)n2c1C [compound 66] has an IC50 of 0.2 to 0.5 µM. For Cc1nccc(-c2cc(-c3ccc(Cl)cc3Cl)no2)n1 [131A], the IC50 was 1 to 2 µM. With Cc1ccc(S(=O)(=O)N=C(N)Nc2nc(C)c3cc(C)ccc3n2)cc1 [164A] the IC50 was 1 to 2 µM. Work on COc1ccc(-c2cc(=O)c3cc(OC(=O)C(C)(C)C)ccc3o2)cc1 [110B] yielded an IC50 of 0.2 to 0.5 µM. In the case of CC(=O)Oc1ccc2c(=O)c(-c3cnn(-c4ccccc4)c3)coc2c1C [56B], the IC50 is reported as 0.5 to 1 µM. In the case of COc1ccc(Cl)cc1C(=O)NCc1ccc(Cl)cc1 [89B], the IC50 is reported as 1 to 2 µM. Clc1ccc(-c2csc(-c3ccc4c(c3)CCO4)n2)s1 [38B] gave an IC50 of 0.5 to 1 µM. Compound O=C(CN1CCCCCC1)Nc1sc2c(c1C(=O)Nc1ccc(Br)cc1)CCC2 [42A] has an IC50 of 1 to 2 µM. In the case of Cc1nc(NC(=O)c2cc(C(C)(C)C)n[nH]2)sc1SCC#N [34A], the IC50 is reported as > 2 µM. With N#Cc1c(-c2ccc(Br)cc2)csc1N1CCCCC1 [150A] the IC50 was > 2 µM. For c1ccc(-c2cc(-c3cn4cccnc4n3)on2)cc1 [128A], the IC50 was 1 to 2 µM. With CCCc1c(C)nc(Nc2nc(C)c3cc(C)cc(C)c3n2)[nH]c1=O [163A] the IC50 was 1 to 2 µM. With Cc1ccc(-c2nnc(-c3ccncc3)[nH]2)c([N+](=O)[O-])c1 [109A] the IC50 was 1 to 2 µM. With CCCn1ncc(C(=O)Nc2ccc(N3CCCCC3)c(F)c2)c1C [compound 35] the IC50 was 0.5 to 1 µM. In the case of Clc1ccc(Nc2nnc(-c3ccncc3)s2)cc1 [98B], the IC50 is reported as 1 to 2 µM. With COc1ccc(CC(=O)Nc2ccc(-c3csc(C)n3)cc2)cc1 [143A] the IC50 was > 2 µM. c1ccc(-c2ccc(N3CCOCC3)s2)cc1 [100B] was tested, and the IC50 was > 2 µM. Compound CCc1nnc(-c2ccc(NC(=O)c3ccccc3OC)cc2)o1 [3A] has an IC50 of 1 to 2 µM. With CCc1c(C(=O)Nc2c(C)nn(-c3ccccc3)c2C)cnn1-c1ccc([N+](=O)[O-])cc1 [30A] the IC50 was 1 to 2 µM. For O=C(Nc1ccc(N2CCc3sccc3C2)nc1)c1cc(Br)c[nH]1 [32A], the IC50 was 1 to 2 µM. Cc1ccc2[nH]c(SCc3ccccc3C)nc2c1 [64B] showed an IC50 of 0.5 to 1 µM. In the case of CCOc1ccc(NC(=O)c2c(C)coc2C)cc1 [11B], the IC50 is reported as 0.5 to 1 µM. C/C(=N\CCc1ccccc1)c1c(C(F)(F)F)[nH]n(-c2nc3ccccc3s2)c1=O [153A] was tested, and the IC50 was > 2 µM. For COC(=O)c1cccc(NC(=O)c2nsc3ccccc23)c1 [compound 33], the IC50 was 0.2 to 0.5 µM. COc1ccc(Nc2nn(-c3ccccc3)c3c2C(=O)CCC3)cc1 [177A] gave an IC50 of 1 to 2 µM. Compound CC(=O)c1csc(COc2cc(Cl)cc(Cl)c2)n1 [55A] has an IC50 of 1 to 2 µM. With CC(C)c1nc2ccc(NC(=O)c3ccc(F)cc3)cc2[nH]1 [37A] the IC50 was 1 to 2 µM. In the case of Cc1ccc(-n2nnc(-c3ccc(Cl)cc3)n2)cc1 [110A], the IC50 is reported as 1 to 2 µM. For Cc1ccc(C(=O)Nc2cc(C(C)(C)C)on2)cc1 [25A], the IC50 was > 2 µM. In the case of CCOC(=O)c1ccc(Nc2nc3nonc3[nH]/c2=N\OC(C)=O)cc1 [97B], the IC50 is reported as 1 to 2 µM. Work on Cn1c(SCc2ccccc2Cl)nnc1-c1csc(-c2cccnc2)n1 [53A] yielded an IC50 of 1 to 2 µM. In the case of Cc1cc(C)nc(N2CCN(c3ccc(Cl)cc3)CC2)n1 [70A], the IC50 is reported as > 2 µM. O=C(COc1ccccc1-c1nnc(-c2ccccc2)o1)NCc1ccccn1 [139A] was tested, and the IC50 was 1 to 2 µM. N#Cc1ccccc1OCc1cc(-c2cccs2)on1 [127A] showed an IC50 of 1 to 2 µM. Work on CNC(=O)c1ccc(-c2cc(C(F)(F)F)nn2C)s1 [60B] yielded an IC50 of 1 to 2 µM. In the case of CC(C)C(=O)Nc1ccc2c(c1)C(=O)c1c-2nn(C)c1C(C)(C)C [compound 148], the IC50 is reported as 0.5 to 1 µM. N#Cc1ccc(C(=O)Nc2ccc(Cl)c(C#N)c2)cc1 [7A] showed an IC50 of 1 to 2 µM. Cc1ccc(-c2nc(Cn3cnc(C#N)n3)co2)c(C)c1 [134A] showed an IC50 of 1 to 2 µM. Compound Cc1[nH]c2c(C(=O)Nc3cccc(CN4CCOC4=O)c3)cccc2c1C [40A] has an IC50 of 1 to 2 µM. Work on NC(=O)c1cc(-c2ccc(Cl)s2)nc2ccccc12 [156A] yielded an IC50 of 1 to 2 µM. In the case of Cc1ccc(NC(=O)CSc2nnc(C)c3ccccc23)cc1 [160A], the IC50 is reported as 1 to 2 µM. In the case of COc1ccccc1CNc1[nH]nc2nc(C)cc(C)c12 [123A], the IC50 is reported as 1 to 2 µM. Compound COC(OC)c1ccnc(-c2ccc(I)c(F)c2)n1 [84A] has an IC50 of 1 to 2 µM. CCC(=O)Nc1ccc(Cl)c(NC(=O)c2ccc(OC(C)C)cc2)c1 [6B] gave an IC50 of 0.5 to 1 µM. O=C1CC(c2ccc(Cl)cc2)CN1C(=O)Nc1ccccc1 (centres unmarked) [103B] showed an IC50 of 0.5 to 1 µM. COc1ccc(-c2noc(-c3cscn3)n2)cn1 [137A] was tested, and the IC50 was > 2 µM. O=C(Nc1ccc2c(c1)ncn2-c1ccccc1)c1ccc(Cl)cc1 [39A] was tested, and the IC50 was 1 to 2 µM. Cc1cc(N(C)C)nc(N2CCN(C(=O)Nc3cccc(F)c3)CC2)n1 [79A] showed an IC50 of 1 to 2 µM. With O=C(NCCc1ccc(Cl)cc1)c1cccc2nsnc12 [107B] the IC50 was 0.2 to 0.5 µM. For Cc1cccn2c(=O)c3cc(C(=O)NCc4ccccc4Cl)sc3nc12 [125B], the IC50 was 0.2 to 0.5 µM. Work on Cc1cc(C)c2cc(C(=O)N(C)Cc3ccc(C)o3)[nH]c2c1 [62B] yielded an IC50 of 0.5 to 1 µM. Work on Clc1ccccc1CNc1ccc(-c2nc3ncccc3o2)cc1 [172A] yielded an IC50 of 1 to 2 µM. For COc1cccc(C(=O)Nc2cnc(-c3ccccc3)nc2)c1 [16A], the IC50 was 1 to 2 µM. Work on COc1ccc(OCCSc2nc3ccc(Br)cc3[nH]2)cc1 [112A] yielded an IC50 of 1 to 2 µM. For CCOC(=O)c1sc(NC(=O)c2ccc3ncsc3c2)cc1C [compound 39], the IC50 was 0.5 to 1 µM. Work on c1ccc(-c2nc(CSc3nncn3-c3ccccc3)co2)cc1 [133A] yielded an IC50 of 1 to 2 µM. Cc1cc(C)c2cc(C#N)c(Oc3cccnc3)nc2c1 [158A] was tested, and the IC50 was 1 to 2 µM. Work on CNC(=O)c1ccsc1NC(=O)c1cccc(Oc2ccccc2)c1 [16B] yielded an IC50 of 1 to 2 µM. CN(C)c1oc(-c2ccc(COc3ccccc3)o2)nc1C#N [151A] gave an IC50 of 1 to 2 µM. Work on O=C(Nc1cnc2ccc(C(F)(F)F)cn2c1=O)OCc1ccccc1 [compound 151] yielded an IC50 of 0.5 to 1 µM. COc1ccc(C2=C(C#N)c3nc4ccccc4n3C(=O)C2C#N)cc1 (centres unmarked) [121B] gave an IC50 of 0.5 to 1 µM. Work on O=c1[nH]nc(CNc2ccc(Cl)cc2Cl)c2ccccc12 [compound 156] yielded an IC50 of 0.5 to 1 µM. Compound CCC(C)C(=O)Nc1ccc(-c2nnc(-c3ccccc3C)o2)cc1 (centres unmarked) [83B] has an IC50 of 0.5 to 1 µM. Cc1cccnc1NC(=O)c1cc2c(ccc3ccccc32)[nH]1 [51A] showed an IC50 of 1 to 2 µM. Work on O=C(Nc1cc2c(s1)CCCC2)c1ccccc1 [21B] yielded an IC50 of 1 to 2 µM. N#Cc1c(NC(=O)Nc2ccc(Cl)c(Cl)c2)sc2c1C1CCN2CC1 [192A] gave an IC50 of 1 to 2 µM. CCCn1cnc(-c2nc(C(=O)Nc3cc(C)ccc3C)c3ccccn23)c1 [46A] showed an IC50 of 1 to 2 µM. In the case of CSc1nc(-c2ccccc2)nc2[nH]c(-c3ccccc3)cc(=O)c12 [166A], the IC50 is reported as 1 to 2 µM. In the case of Cc1nc(-c2ccc(OC3=CC=C4N=NC(C(F)(F)F)N4N3)cc2)no1 (centres unmarked) [124A], the IC50 is reported as > 2 µM. In the case of Cn1nc(N2CCN(c3ccccc3Cl)CC2)c(=O)n(C)c1=O [42B], the IC50 is reported as 0.2 to 0.5 µM. Compound COc1ccc(NC(=O)CSc2nnc(-c3sc4nc(C)cc(C)c4c3N)o2)cc1 [82B] has an IC50 of 0.5 to 1 µM. With COC(=O)c1cnn(-c2cc(Nc3c(F)cccc3F)ncn2)c1N [compound 86] the IC50 was 0.2 to 0.5 µM. Compound COc1ccc(C(=O)Nc2ccc(C)c(F)c2)cc1 [2B] has an IC50 of 1 to 2 µM. Cc1ccccc1OCCNC(=O)c1cc(Cl)ccc1F [141A] showed an IC50 of 1 to 2 µM. COC(OC)c1ccc(C#N)c(=O)n1Cc1ccc(Cl)cc1 [92B] showed an IC50 of 1 to 2 µM. For COCCNc1c(C)c(C)nc2cc(-c3cc(C)oc3C)nn12 [119A], the IC50 was 1 to 2 µM. Work on Cc1ccc(N2CC[C@@H]3[C@@H]2CCN3c2ncc(F)cn2)nn1 [181A] yielded an IC50 of 1 to 2 µM. Work on O=S(=O)(Cc1cccc(F)c1)c1ccc2ccccc2c1 [93B] yielded an IC50 of 0.2 to 0.5 µM. CSc1ccccc1NC(=O)c1ccc(-c2ccccc2)cc1 [4B] was tested, and the IC50 was > 2 µM. O=C(NC1CC1)c1cnc(-c2noc3ccccc23)s1 [61A] was tested, and the IC50 was 1 to 2 µM. With CN(C)c1ccc(-c2nnc(-c3cccs3)o2)cc1 [compound 149] the IC50 was 0.5 to 1 µM. Compound Cc1cc([N+](=O)[O-])c(N)cc1N1CCN(c2ccccc2)CC1 [67A] has an IC50 of 1 to 2 µM. For Cc1cn2cc(-c3ccc(F)cc3)nc2s1 [compound 67], the IC50 was 0.5 to 1 µM. In the case of Cc1c(C(=O)OC2CCCC2)[nH]c2c1C(=O)CCC2 [179A], the IC50 is reported as > 2 µM. For COc1ccc(C(=O)Nc2nc3c(s2)CCCC3)cc1 [171A], the IC50 was 1 to 2 µM. Work on N#Cc1cccnc1Oc1ccc(NC(=O)c2ccc(F)cc2F)cc1 [5A] yielded an IC50 of 1 to 2 µM. Cn1nc(C2CC2)cc1C(=O)Nc1ccc(I)cc1 [compound 36] gave an IC50 of 0.5 to 1 µM. Work on Cc1cc(C)c2c(NCc3ccccc3F)[nH]nc2n1 [122A] yielded an IC50 of 1 to 2 µM. COc1cccc(-c2ccc(SCc3cccnc3)nn2)c1 [89A] was tested, and the IC50 was > 2 µM. FC(F)(F)c1cccc(Nc2nc3ccccc3[nH]2)c1 [114A] was tested, and the IC50 was 1 to 2 µM. Work on CCN1C(=O)C[C@@H]2[C@@H]1CCN2S(=O)(=O)Cc1ccc(C)cc1 [182A] yielded an IC50 of 1 to 2 µM. Compound CCOc1ccc(-n2nc3ccc(NC(=O)COc4ccccc4Cl)cc3n2)cc1 [73B] has an IC50 of 0.5 to 1 µM.
